From a melting point compilation (Tetko et al.; mined from patent text by program, amines drawn as free bases though some values may be those of a salt)
Non-standard residues stand in square brackets, D forms with d. Residues, ends and D or L forms follow the SMILES beside them. *: point of attachment. 1Nal = N[C@@H](Cc1cccc2ccccc12)C(=O)O; Leu(ol) = CC(C)C[C@H](N)CO; Cbz = O=C(OCc1ccccc1)*

SMILES | melting point
C=CCOC1CC(C)(C)N(c2nc(Cl)nc(Cl)n2)C(C)(C)C1 | 53 to 55 °C
Cc1cc(OC(=O)N(C)C)nc(C(Cl)(Cl)Cl)n1 | 83.5 to 84.5 °C
CCC(O)(CCC(N)=O)c1ccc(Cl)c(Cl)c1 (configuration not stated) | 106 to 107 °C
Cc1cn(C(C)(C)C(=O)N(C)C)nc1-c1ccccc1Br | 192 to 194 °C
CC(C)OC(=O)C(=C1SC=CS1)S(=O)(=O)C(C)C | 124 to 125 °C
CC(C)C[C@@H](CO)NC(=O)[C@H](Cc1c[nH]cn1)NC(=O)[C@H](Cc1cccc2ccccc12)NC(=O)OCc1ccccc1 (Cbz-[1Nal]-His-[Leu(ol)]) | 157 to 159 °C
CC(C)[C@H](NC(=O)N(C)Cc1cccnc1)C(=O)N[C@@H](Cc1ccccc1)[C@H](O)[C@@H](O)[C@H](Cc1ccccc1)NC(=O)[C@@H](NC(=O)N(C)Cc1cccnc1)C(C)C | 95 to 97 °C
ClC(Cl)(Cl)c1nc2ccccc2o1 | 102 °C
N#Cc1cc2cccnc2nc1Cl | 273 °C
CCc1n[nH]c(=O)c2c(C)ncn12 | 175 to 178 °C
COc1nc(C)nc(NC(=O)NS(=O)(=O)c2ccccc2-c2ccccc2)n1 | 190 to 193 °C
Cc1nc(N)nc(C)c1Br | 183 to 185 °C
O=C(OCc1cncs1)Oc1ccc([N+](=O)[O-])cc1 | 62 to 64 °C
N#Cc1cc(Cl)cc(Oc2ccc(CC(=O)Nc3ccc(S(N)(=O)=O)cc3Br)cc2Br)c1 | 168 to 170 °C
CCOCc1nc2c(N)nc3ccccc3c2n1CC(C)(C)OCCS(=O)(=O)c1ccccc1 | 187 to 189 °C
O=C(OCC1CC1)c1ncn2c1[C@@H]1CCCN1C(=O)c1c(I)cccc1-2 | 164 to 165 °C
c1ccc(OCCSCc2nnc(-c3ccc(OCCCN4CCCCC4)cc3)o2)cc1 | 65 °C
CC1(C)CC(=O)C=C(Nc2ccccc2Cl)C1 | 150 to 152 °C
NC(=O)C(CCCCCc1ccc(Cl)cc1)C(=O)O (configuration not stated) | 125 to 126 °C
O=[N+]([O-])c1ccc2c(c1)NP(=O)(N(CCCl)CCCl)NC2 (configuration not stated) | 168 to 170 °C
COc1cc(C2(CNC(=O)Nc3c(C(C)C)cccc3C(C)C)CCC2)cc(OC)c1OC | 145 to 147 °C
O=C[C@H](OCc1ccccc1)[C@@H](OCc1ccccc1)[C@@H](O)COCc1ccccc1 | 68 to 73 °C
CCCc1cc(C(O)=S)cc([N+](=O)[O-])c1-c1ccccc1 | 178 to 180 °C
COc1c2ccccc2c(-c2cc(Br)c(O[C@H](Cc3ccccc3)C(=O)O)c(Br)c2)c2c1sc1ccccc12 | 102 to 110 °C
CCS(=O)(=O)NC(C(=O)NCCc1ccc(OC)c(OC)c1)c1ccc(Cl)cc1 (configuration not stated) | 136 to 138 °C

SMILES | melting point
CCCCN1C(=O)NC(=C(C)C)C1=O | 130 °C
C=CCC(NC(=O)c1ccc(OC)cc1)C(=O)OCC (configuration not stated) | 76 to 78 °C
Cc1ccc(CCOc2cccc3c(Cl)ccnc23)cc1 | 74 to 75 °C
COc1ccc2cc(Nc3ccc(O)cc3)ccc2c1 | 153 to 154 °C
NC(=N[N+](=O)[O-])N1CCN(Cc2ccc(Cl)nc2)C1 | 170 to 174 °C
CC(C)NC1=NS(=O)(=O)c2sc(Br)c(Br)c2N1 | 250 to 251 °C
OCCN(CCO)CC(c1ccc(Cl)cc1)c1ccc(Cl)cc1 | 75 to 76 °C
CSc1ccc2ccc(N)nc2n1 | 158 °C
CCCCCC(C=CC1C(O[Si](C)(C)C(C)(C)C)CC2Cc3c(cccc3OC(=O)c3ccccc3)CC21)O[Si](C)(C)C(C)(C)C (configuration not stated) | 140 to 141 °C
COc1ccc(CCCC2OC(=O)NC2=O)cc1OCc1nc(-c2ccccc2)oc1C (configuration not stated) | 185 to 187 °C
O=C1NCc2cc(C(c3ccccc3)n3ccnc3)ccc2N1 (configuration not stated) | 222 °C
N#Cc1ccc2oc(CCCCCc3cc4cc(C#N)ccc4o3)cc2c1 | 133 to 134 °C
C1=Cc2ccccc2C=CN1 | 186 to 190 °C
OCCN(Cc1ccc2ccccc2c1)C1(c2nccc3sccc23)CCNCC1 | 53 to 55 °C
O=C(NC(CO)(CO)CO)c1ccc(C(=O)NC(CO)(CO)CO)cc1 | 188 to 190 °C
Fc1ccc2c(NCc3ccccc3)nc(-c3cccnc3)nc2c1 | 199 to 203 °C
CCSc1ccc(-c2cnccn2)c2c1C(=O)CC(C)C2 (configuration not stated) | 152 to 154 °C
CC[C@H](C)CCCCCOc1ccc(C(=O)Oc2ccc(O)cc2)cc1 | 75 °C
CN(C)CCN(CCC12CC3CC(CC(C3)C1)C2)C(=O)NCCCc1ccncc1 | 104 to 106 °C
O=C(O)CCCCCNC(=O)C(CS)Cc1ccccc1 (configuration not stated) | 58 to 60 °C
Brc1ccc2c(Sc3ccccc3)c[nH]c2c1 | 145 to 148 °C
N=c1nc(Cl)cc(N)n1O | 193 °C
CCCCc1nn(-c2ccccc2Cl)c(=O)[nH]1 | 103 to 104 °C
COc1cc(C)cc(-c2nn(CC#N)cc2-c2ccnc(S(C)(=O)=O)n2)c1 | 238 °C

Second part, the compound after the results:

melting point | SMILES
251 °C | COc1ccc(C(=O)C2=C(O)C(=O)N(c3nnc(C)s3)C2c2ccc(O)cc2)cc1 (configuration not stated)
130 °C | CCOC(=O)C1CN(C(=O)c2cc(OC)c(OC)c(OC)c2)CCN1C(=O)c1cc(OC)c(OC)c(OC)c1 (configuration not stated)
107 to 109 °C | CCCN1C(=O)N2CCCN=C2c2c1ncn2C
137 to 139 °C | Cc1cc(C)c(N2CCC2=O)cc1NS(=O)(=O)C(F)(F)F
175 to 176 °C | COc1ccc(C2=NNC(=O)[C@H]3CCCC[C@@H]23)cc1OC1CCCC1 (relative stereo)
102 to 104 °C | CNC(=O)n1nc(Oc2ccc(C(F)(F)F)cc2[N+](=O)[O-])cc1C(F)(F)F
72 to 74 °C | CCC(CC)Nc1c(C)cnc(Oc2c(C)cc(Cl)cc2C)c1N
114 to 116 °C | CCCC(CCC)Nc1nc(C)nc(Oc2c(Br)cc(C(C)(C)O)cc2OC)c1N
115 to 117 °C | CCOc1nc2ccccc2nc1N(CC)C(=O)N1CCN(c2cc(Cl)cc(Cl)c2)CC1
162 to 164 °C | Nc1ccc2c(=O)[nH]c(=O)n(CCCCN3CCC(OC(c4ccccc4)c4ccccc4)CC3)c2c1
267 to 268 °C | O=C(O)Cc1c(C(=O)c2cccnc2)[nH]c2cc(Cl)ccc12
222 to 223 °C | CCCCOc1nc(N)c2[nH]c(=O)n(CCNc3cccc(CC(=O)OC)c3)c2n1
156 °C | Cn1nc(-n2ncc(C(N)=S)c2N)c(Cl)c1OC(F)F
185 to 195 °C | COc1cc(N2CCN(C)CC2)ccc1-c1nc2c(N[C@H]3[C@@H](C(N)=O)[C@@H]4C=C[C@H]3C4)c(Br)cnc2[nH]1
212 to 215 °C | CC(C)n1nc(-c2cc(C(=O)O)c(=O)[nH]c2-c2ccccc2)ccc1=O
80 to 82 °C | CC(=O)Nc1c(C(=O)c2ccccc2)[nH]c2ccc(F)cc12
187 to 188 °C | CC1=C(C(=O)OC(C)(C)C)C(c2cccc([N+](=O)[O-])c2)N(C(=O)N(C)C)C(=O)N1 (configuration not stated)
234 to 236 °C | Cc1cn2c(n1)Cc1ccccc1NC2=O
271 to 275 °C | Nc1c(F)c(N2CC(O)C2)c(F)c2c1c(=O)c(C(=O)O)cn2C1CC1
124 to 126 °C | CC(C)(C)c1cc(NC(=O)c2cncc3cc(Oc4cc(N)ncn4)ccc23)n(-c2ccc(F)cc2)n1
260 to 265 °C | CCC12CCC(=O)C=C1c1c(cc(O)c(Cl)c1Cl)C2 (configuration not stated)
87 to 94 °C | CN1CCN(c2cccc3ccc(Nc4ccccc4[N+](=O)[O-])cc23)CC1
44 to 45 °C | CCOC(=O)c1ccc(C(F)(F)F)cc1SC
178 to 179 °C | O=C(O)c1cc2c(C(F)(F)F)cccc2s1

melting point | SMILES
144 to 148 °C | CC(C=CCOC(=O)c1ccc(C(N)=O)cc1)Oc1ccc(Oc2cnc3cc(Cl)ccc3n2)cc1 (configuration not stated)
127 to 130 °C | CC1CCC(C)N1CCNc1ccnc2cc(Cl)ccc12 (configuration not stated)
80 to 83 °C | CC[C@@]12C[C@H](O)[C@](O)(c3c(F)cccc3F)C[C@H]1CCc1cc(OCc3cccnc3C)ccc12
137 to 142 °C | CCC(=O)Oc1ccc(NC(=O)OC(C)(C)C)cc1C(=O)O
67.5 to 68 °C | CN1CCN(c2cccc3ccc(OCc4cccc(Cl)c4)cc23)CC1
149 to 152 °C | Cc1cc([N+](=O)[O-])ccc1N=C1C2CC3CC(C2)CC(C3)N1C1CCCC1
185 °C | CCCC1=C(C(=O)OCC)C(c2cccc(Cl)c2C)c2c[nH]nc2N1 (configuration not stated)
162 to 164 °C | Nc1c(I)c(-c2ccccc2)nn1-c1c(Cl)cc(C(F)(F)F)cc1Cl
165 to 168 °C | Nc1nc2c(s1)CCN(CC=Cc1cccc([N+](=O)[O-])c1)CC2
76 to 78 °C | CCC(C#N)(CC)c1nsc2ccc(-n3c(=O)cc(C(F)(F)F)n(C)c3=O)cc12
194 to 196 °C | O=C1Cc2cc(NC(=O)C(=O)N3CCC(Oc4ccc(Cl)cc4)CC3)ccc2N1
57 °C | O=C1CN(C/C=C/c2ccc(Cl)cc2)CCN1c1cc(F)ccc1[N+](=O)[O-]
139 °C | CCN(CC1CCCC1)c1nc2c(cc1CN(Cc1cc(C(F)(F)F)cc(C(F)(F)F)c1)C(N)=O)c(C)nn2C
155 to 156 °C | Cc1ccc(NC(=O)c2cccc(C(F)(F)F)c2)cc1-c1ccc2ncncc2c1
138 to 140 °C | CCCCOCCOc1ccc(-c2ccc(N3CC=CC3)c(C=C(C)C(=O)O)c2)cc1
230 to 232 °C | N#Cc1cn(-c2ccc(C(F)(F)F)cc2)c(=O)[nH]c1=O
176 to 177 °C | CC(=O)C1=CCC2C3CCC4CC=CCC4(C)C3C(=O)CC12C (configuration not stated)
230 to 232 °C | CON=C1CN(c2nc3c(cc2F)c(=O)c(C(=O)O)cn3-c2ccc(F)cc2F)CC12CN(C(=O)OC(C)(C)C)C2
178 to 181 °C | O=C(O)c1cc(=O)c(Sc2ccccc2)co1
175 °C | Cc1ccc(S(=O)(=O)NC(=O)OCCc2ccc(-n3c(CCCc4ccccc4)nc4c(C)nc(C)cc43)cc2)cc1
169 to 170 °C | CCOC(=O)CC[C@H](NC(=O)c1ccc(CCC2CNc3nc(NC(=O)C(C)(C)C)[nH]c(=O)c3C2)s1)C(=O)OCC (some centres not stated)
119 to 120 °C | CC(=O)NC(=O)c1cccc(-c2noc(-c3ccccc3F)n2)c1
205 to 207 °C | O=C1CCC(N2C(=O)c3ccc(CNC(=O)c4ccc5ccccc5n4)cc3C2=O)C(=O)N1 (configuration not stated)
> 260 °C | NC(=O)C1(C2c3[nH]c4ccc(Cl)cc4c3CCN2C=O)CCC1 (configuration not stated)
